Test results reported in PMC7504721, “Targeting the Initiator Protease of the Classical Pathway of Complement Using Fragment-Based Drug Discovery” (Molecules, 2020).

Assays:
full-length C1r = molecular target: T1, full-length C1r (Homo sapiens, UniProt P00736); assay: SPR dose-dependent binding, steady-state affinity
T1 construct: purchased Complement Technology (CompTech)
T1 sequence (P00736 18-463 limits assumed): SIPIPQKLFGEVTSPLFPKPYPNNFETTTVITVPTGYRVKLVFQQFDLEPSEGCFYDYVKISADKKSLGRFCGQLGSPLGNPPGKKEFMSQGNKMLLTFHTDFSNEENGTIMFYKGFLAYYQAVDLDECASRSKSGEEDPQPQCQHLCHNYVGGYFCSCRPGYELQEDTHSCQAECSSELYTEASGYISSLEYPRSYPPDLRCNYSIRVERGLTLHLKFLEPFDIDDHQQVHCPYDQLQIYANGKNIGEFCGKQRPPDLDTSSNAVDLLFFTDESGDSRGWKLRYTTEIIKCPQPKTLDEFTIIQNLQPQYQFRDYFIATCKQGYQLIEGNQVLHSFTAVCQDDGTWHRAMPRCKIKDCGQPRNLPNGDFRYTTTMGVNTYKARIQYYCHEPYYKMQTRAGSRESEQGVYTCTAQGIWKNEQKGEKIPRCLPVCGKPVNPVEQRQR
T1 sequence (P00736 464-705 limits assumed): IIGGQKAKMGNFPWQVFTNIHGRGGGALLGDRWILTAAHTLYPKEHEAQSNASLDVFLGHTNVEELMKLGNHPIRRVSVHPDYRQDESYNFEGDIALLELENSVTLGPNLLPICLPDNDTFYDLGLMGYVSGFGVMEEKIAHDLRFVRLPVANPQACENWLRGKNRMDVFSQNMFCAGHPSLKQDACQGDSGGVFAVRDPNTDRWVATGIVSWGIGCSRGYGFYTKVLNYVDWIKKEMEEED
Protocol: All SPR experiments were carried out using a Biacore T200 (GE Healthcare, Chicago, IL, USA) at 25 °C. For all experiments, a running buffer (HBS-T) of 20 mM HEPES (pH 7.3), 140 mM NaCl, 0.005% (v/v) Tween-20, 5% DMSO (v/v) was used. For each experiment, DMSO calibration curves ranging from 4% to 5.5% DMSO (v/v) were collected at the beginning, end, and every 50 cycles throughout the duration of the experiment. All experiments were performed using HC1500M sensor chips (Xantec, Duesseldorf, Germany). In total, 10 sensor chips and 16 ligand immobilized surfaces were created over the course of this study (detailed in Table S2). In all cases, C1r proteins were immobilized onto chip surfaces using amine-coupling chemistry with 1-ethyl-3-(3-dimethylaminopropyl)-carbodiimide) (EDC), N-hydroxysuccinimide (NHS), followed by ethanolamine. Briefly, 100 mM of EDC and NHS were mixed and injected to activate the chip surface followed by the C1r protein ligand captured at a defined resonance unit (RU) level, followed by reaction quenching with 100 mM ethanolamine pH 8.5. Flow cell 1 was always used as a reference cell (no ligand), unless otherwise noted. All sensorgrams were reference and blank subtracted and analyzed using T200 Evaluation Software (GE Healthcare, Chicago, IL, USA).
To further evaluate hit compounds from the initial SPR screen, dose-dependent SPR binding assays were carried out. Three replicate flow cells were used containing both low and high immobilization densities of C1r (see Table S2). Hit compounds were tested for dose-dependent binding to full-length C1r using a compound concentration range of 7.8–500 µM. T200 evaluation software was used to calculate steady-state affinities for each compound by fitting sensorgrams from each variable concentration injection dataset using a 1:1 Langmuir model of interaction constrained by a theoretical experimental binding response based on the mol. wt. of each compound and derived as stated above. KD values are reported as the mean ± the standard deviation from at least three independent measurements.

classical pathway = assay: Classical pathway-specific ELISA-based complement inhibition assay (C4b deposition, IgM-coated plate, human serum); type: biochemical; details: single 500 µM concentration, triplicate, 1% normal human serum, unpaired t-test p < 0.05
Protocol: To carry out classical pathway ELISA-based inhibition assays, IgM was dissolved in coating buffer (100 mM Na2CO3/NaHCO3, pH 9.6) to a final concentration of 3 µg/mL and was dispensed into 96-well plates at 100 µL per well. Mannan was dissolved to 2 µg/mL and lipopolysaccharides (LPS) were dissolved to 10 µg/mL in coating buffer for use in lectin and alternative pathway inhibition assays, respectively. Immobilization was allowed to proceed overnight at 25 °C. The immobilization reagent was then removed, followed by three washes in washing buffer (50 mM Tris pH 8.0, 200 mM NaCl, 0.05% (v/v) Tween-20), and blocked using 100 µL of 1% (w/v) bovine serum albumin in PBS-T for 1 h at 37°C. Blocking buffer was removed and plates were washed three times in washing buffer. Next, 500 µM of each compound, 5% (v/v) DMSO, and 1% (v/v) normal human serum (Innovative Research) (final concentrations) were dissolved in classical/lectin pathway ELISA buffer (20 mM HEPES (pH 7.3), 0.1% (w/v) gelatin, 140 mM NaCl, 2 mM CaCl2, 0.5 mM MgCl2) and added to the IgM-coated plate for 1 h at 37 °C. For the lectin pathway-specific ELISAs shown in Figure 5D, we used C1q-depleted serum from CompTech at 2% (v/v) and thus the classical pathway assays for this analysis were also performed using serum from CompTech at 2% (v/v). For the alternative pathway, 20% (v/v) normal human serum (CompTech) (final concentration) and alternative pathway ELISA buffer (20 mM HEPES, (pH 7.5), 0.1% (w/v) gelatin, 140 mM NaCl, 2 mM CaCl2, 0.5 mM MgCl2) were used in place of classical/lectin pathway ELISA buffer. Plates were then washed three times in wash buffer and each well was filled with 100 µL of α-C4 (HYB 162-02, Santa Cruz Biotechnology) diluted 1:300 for classical and lectin pathway assays and 100 µL of C3b (WM-1, Sigma) diluted 1:300 for alternative pathway assays. Plates were again incubated at 37 °C for 1 h, washed three times, filled with 100 µL of HRP-conjugated goat-α-mouse secondary antibody (diluted 1:3000) (Thermo Scientific, Waltham, MA, USA), and rocked gently for 1 h at 25 °C. After three more washes, 50 µl of substrate (1-step Ultra TMB, Thermo Scientific, Waltham, MA, USA) was added to each well and rocked for 15 min in the dark at 25 °C. The reaction was stopped with 50 µL of 0.16 M sulfuric acid, and the plate was read at 450 nm using an EnSight multimode plate reader (Perkin-Elmer). Each column contained a positive control for full complement activity (5% (v/v) blank DMSO with 1% (v/v) serum) and a negative control for no complement activity (5% (v/v) blank DMSO and no serum). Positive controls (1% (v/v) serum, no inhibitor) were defined as 100% C4b or C3b signal whereas negative controls (no serum) were defined as 0% C4b or C3b signal for each column. Compounds that inhibited complement deposition relative to the control were then evaluated using the same assay setup across a two-fold variable concentration series for each compound (7.8–500 µM). […] All experiments were performed no less than three times.
Statistical analyses were performed using GraphPad Prism version 8. For complement inhibition assays, measures of statistical significance for single-dose experiments were assessed using unpaired Student’s t-tests compared to no inhibitor controls (pathway ELISAs) or non-binding control compounds (classical pathway ELISA). Statistical significance was defined as p < 0.05. Calculation of IC50 values from dose-dependent complement assays were obtained by non-linear regression analysis using a using an inhibitor vs. response model and with 95% confidence intervals reported. For non-linear regression analyses, the top and bottom of each curve were constrained to 100 and 0, respectively.

CN1c2ccccc2N(C)C1c1ccccc1 [CMP-4]
Kd (full-length C1r; 1:1 steady-state binding model, mean ± S.D. from three independent injection series, 25 °C): 720 µM
Ligand efficiency (LE) (full-length C1r; LE = ΔG/number of non-hydrogen atoms, ΔG = -RT x ln KD,C1r, using KD values of Fig. 3): 0.25
inhibition of classical pathway (C4b deposition) relative to non-binding control compound (classical pathway): statistically significant inhibitory activity
